The results in this text go back to patent US10745355B2, “Anti-cancer compounds” (THE UNIVERSITY OF SYDNEY, priority 2015, dated 2020).

Assay [1] deals with U87vIII. The experiment in a line: Alamar blue cell viability assay, U87vIII cells. The class given is cell-based. To be noted: 72 hours of treatment; mean±SEM, three independent experiments. The method, then:
(§1) U87 and U251 cell lines were obtained from the European Collection of Cell Cultures (ECACC) through CellBank Australia. U87-EGFRvIII cell line was obtained from their lab of origin (Nishikawa et al., 1994, Proc Natl Acad Sci USA 91: 7727-7731) and tested for EGFR amplification and mutation by immunoblotting and flow cytometry. Cells were cultured in DMEM medium (Invitrogen by Life Technologies, Carlsbad, Calif., USA) supplemented with 10% FBS (Sigma-Aldrich) at 37° C. and 5% CO2. Primary gliomaspheres (RN1, classical; WK1, mesenchymal) were derived from glioblastoma specimens (Day et al., 2013, Cancers 5: 357-371; Day et al., 2013, Cancer Cell 23: 238-248), maintained in StemPro NSC serum-free media supplemented with EGF and FGF (all Life Technologies), and grown on matrigel-coated flasks (Pollard et al., 2009, Cell Stem Cell 4: 568-580).
Cell viability was determined using Alamar blue assay after 72 hours of treatment (Table 2). EC50 values were calculated using non-linear regression on Graph Pad Prism version 5. c Log P values calculated using ChemBioDraw Software. Results are mean±SEM from three independent experiments performed in triplicates.

Another assay concerns the target BRK (Homo sapiens, UniProt Q13882). The experiment in a line: Kinase profiling (ProQinase 33PanQinase Activity Assay), BRK. The class given is biochemical. As to conditions: read-out: residual activity, BRK. On the procedure: (§2) The kinase profiling of compound 1-08 at 10 and 50 μM was performed by ProQinase GmbH (Freiburg, Germany). A radiometric protein kinase assay (^33PanQinase® Activity Assay) and the non-radiometric ADP-Glo™ Assay (Promega, Madison, Wis., USA) were used for measuring kinase activity of 387 protein kinases and 13 lipid kinases, respectively. The results are shown in Table 3 (only the top 10 kinases are listed, and the selectivity score describes the portion of kinases inhibited more than 50% in relation to all tested kinases).

The subject of assay [2] is 387 protein kinases and 13 lipid kinases. In words: Kinase profiling, selectivity score over the whole panel. The class given is biochemical. The method, then: as §2
Assay [3] deals with U87vIII. The experiment in a line: Annexin-FITC/7-AAD apoptosis assay, U87vIII cells. The class given is cell-based. As to conditions: 48 hours treatment. The method, then: (§3) FIGS. 4A-4D. […] U87 (4A-4B) and U87vIII (4C-4D) cells were treated with SC-38 for 48 hours and stained with Annexin-FITC/7-AAD. Apoptotic cells were visualized using the MUSE cell analyzer (Millipore).
(§4) FIGS. 6A-6D. […] U87 (A B) (6A-6B) and U87vIII (6C-6D) cells were treated with compound 1-08 for 48 hours and stained with Annexin-FITC/7-AAD. Apoptotic cells were visualized using the MUSE cell analyzer (Millipore). Results are means±SEM from 3 independent experiments. One-way ANOVA followed by Dunnet post-test was used to calculate statistical significance (***P<0.001).
(§5) U87 (FIGS. 4, A-B) and U87vIII (FIG. 4, C-D) cells were treated with SC-38 for 48 hours and stained with Annexin-FITC/7-AAD. Apoptotic cells were visualized using the MUSE cell analyzer (Millipore). Results are means±SEM from 3 independent experiments. One-way ANOVA followed by Dunnet post-test was used to calculate statistical significance (**P<0.01, ***P<0.001)
(§6) U87 (FIGS. 6, A-B) and U87vIII (FIG. 6, C-D) cells were treated with compound 1-08 for 48 hours and stained with Annexin-FITC/7-AAD. Apoptotic cells were visualized using the MUSE cell analyzer (Millipore). Results are means±SEM from three independent experiments. One-way ANOVA followed by Dunnet post-test was used to calculate statistical significance (***P<0.001).

For assay [4], the target named is T1, (Homo sapiens, UniProt P43403).
T1 sequence (P43403 1-619): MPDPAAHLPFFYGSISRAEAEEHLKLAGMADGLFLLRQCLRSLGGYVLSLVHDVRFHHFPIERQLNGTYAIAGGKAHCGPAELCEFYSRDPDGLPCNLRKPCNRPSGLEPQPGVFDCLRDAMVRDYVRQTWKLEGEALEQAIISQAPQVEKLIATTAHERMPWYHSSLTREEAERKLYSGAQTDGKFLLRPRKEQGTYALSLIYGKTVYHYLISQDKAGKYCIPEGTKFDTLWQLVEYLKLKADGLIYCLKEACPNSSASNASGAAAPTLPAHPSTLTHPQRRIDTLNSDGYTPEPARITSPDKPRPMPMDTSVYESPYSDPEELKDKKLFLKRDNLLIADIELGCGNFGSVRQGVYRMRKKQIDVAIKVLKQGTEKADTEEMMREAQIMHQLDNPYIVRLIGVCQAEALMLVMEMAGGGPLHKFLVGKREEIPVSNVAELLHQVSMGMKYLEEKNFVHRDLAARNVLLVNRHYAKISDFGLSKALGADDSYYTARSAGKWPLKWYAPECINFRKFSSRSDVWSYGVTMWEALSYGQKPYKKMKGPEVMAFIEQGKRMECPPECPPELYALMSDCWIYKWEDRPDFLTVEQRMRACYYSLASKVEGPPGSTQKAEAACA
In words: Kinase profiling (ProQinase 33PanQinase Activity Assay), ZAP90. As to conditions: read-out: residual activity, ZAP90. The class given is biochemical. On the procedure:
as §2

Assay [5] has as its system WK1 gliomaspheres (mesenchymal). In words: AlamarBlue cell viability assay, WK1 gliomaspheres. It counts as cell-based. As to conditions: 72 h of drug treatment, FIG. 11B. On the procedure:
FIGS. 11A-11B. Efficacy of SC-38 (referred to as “CMPD1”), compound 1-08 (referred to as “cmpd 13”), compound 1-18 (referred to as “cmpd 7”), and compound 1-38 (referred to as “cmpd 10”) in primary gliomaspheres representing two glioblastoma subtypes. (11A) RN1, classical, and (11B) WK1, mesenchymal. Cellular efficacy (EC50) of test compounds was determined using AlamarBlue cell viability assay after 72 h of drug treatment. Data are mean±SEM from 3 independent experiments performed in triplicate.
as §1
The effect of SC-38, and compounds 1-08, 1-18 and 1-38 in a cell viability assay employing patient-derived gliomaspheres was also investigated. RN1 gliomaspheres representing glioblastoma of the classical subtype were most responsive to the treatment (FIG. 11, where SC-38 is referred to as “CMPD1”, compound 1-08 is referred to as “compound 13”, compound 1-18 is referred to as “compound 7”, and compound 1-38 is referred to as “compound 10”).

The test system of the next assay is U87. The experiment in a line: Annexin-FITC/7-AAD apoptosis assay, U87 cells. The class given is cell-based. As to conditions: 48 hours treatment. On the procedure:
as §3, §4, §5, §6

The target of another assay is IGF1R (Homo sapiens, UniProt P08069). The experiment in a line: Kinase profiling (ProQinase 33PanQinase Activity Assay), IGF1R. The class given is biochemical. As to conditions: read-out: residual activity, IGF1R. On the procedure: as §2
Chain of IGF1R (P08069 31-1367): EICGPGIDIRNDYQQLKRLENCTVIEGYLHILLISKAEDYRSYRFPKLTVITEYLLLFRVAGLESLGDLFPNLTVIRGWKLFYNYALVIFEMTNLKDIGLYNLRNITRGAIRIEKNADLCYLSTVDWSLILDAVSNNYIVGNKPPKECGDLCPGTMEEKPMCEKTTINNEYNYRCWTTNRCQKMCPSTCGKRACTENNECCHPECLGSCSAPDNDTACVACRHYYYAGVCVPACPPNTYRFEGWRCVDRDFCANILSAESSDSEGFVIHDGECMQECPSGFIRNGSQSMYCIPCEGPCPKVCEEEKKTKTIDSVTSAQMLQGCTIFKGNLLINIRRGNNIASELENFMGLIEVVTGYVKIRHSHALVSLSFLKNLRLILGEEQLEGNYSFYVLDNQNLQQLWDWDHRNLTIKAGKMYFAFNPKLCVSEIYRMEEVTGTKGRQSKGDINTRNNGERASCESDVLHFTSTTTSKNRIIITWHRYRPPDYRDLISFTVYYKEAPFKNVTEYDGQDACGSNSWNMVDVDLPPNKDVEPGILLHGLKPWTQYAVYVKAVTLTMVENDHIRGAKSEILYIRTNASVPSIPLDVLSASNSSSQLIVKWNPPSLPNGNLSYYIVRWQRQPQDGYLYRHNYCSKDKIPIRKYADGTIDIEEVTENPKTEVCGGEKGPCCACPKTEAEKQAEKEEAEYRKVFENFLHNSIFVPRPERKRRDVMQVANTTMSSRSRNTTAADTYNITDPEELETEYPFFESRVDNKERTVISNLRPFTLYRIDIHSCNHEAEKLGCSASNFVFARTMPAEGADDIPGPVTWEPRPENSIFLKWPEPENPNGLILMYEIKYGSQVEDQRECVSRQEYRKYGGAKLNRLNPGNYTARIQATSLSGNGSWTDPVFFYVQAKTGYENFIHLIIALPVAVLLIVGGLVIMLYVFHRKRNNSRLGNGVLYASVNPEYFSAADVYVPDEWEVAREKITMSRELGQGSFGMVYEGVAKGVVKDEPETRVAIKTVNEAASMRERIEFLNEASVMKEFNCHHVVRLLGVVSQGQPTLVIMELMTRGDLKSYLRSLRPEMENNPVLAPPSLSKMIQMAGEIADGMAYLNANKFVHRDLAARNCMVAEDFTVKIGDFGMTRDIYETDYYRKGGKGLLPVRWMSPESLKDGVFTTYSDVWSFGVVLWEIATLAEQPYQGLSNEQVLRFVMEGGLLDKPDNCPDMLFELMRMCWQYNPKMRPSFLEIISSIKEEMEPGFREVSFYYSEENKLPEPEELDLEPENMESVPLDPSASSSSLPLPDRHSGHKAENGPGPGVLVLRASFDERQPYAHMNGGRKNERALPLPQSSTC

Chain of BRK (Q13882 whole entry): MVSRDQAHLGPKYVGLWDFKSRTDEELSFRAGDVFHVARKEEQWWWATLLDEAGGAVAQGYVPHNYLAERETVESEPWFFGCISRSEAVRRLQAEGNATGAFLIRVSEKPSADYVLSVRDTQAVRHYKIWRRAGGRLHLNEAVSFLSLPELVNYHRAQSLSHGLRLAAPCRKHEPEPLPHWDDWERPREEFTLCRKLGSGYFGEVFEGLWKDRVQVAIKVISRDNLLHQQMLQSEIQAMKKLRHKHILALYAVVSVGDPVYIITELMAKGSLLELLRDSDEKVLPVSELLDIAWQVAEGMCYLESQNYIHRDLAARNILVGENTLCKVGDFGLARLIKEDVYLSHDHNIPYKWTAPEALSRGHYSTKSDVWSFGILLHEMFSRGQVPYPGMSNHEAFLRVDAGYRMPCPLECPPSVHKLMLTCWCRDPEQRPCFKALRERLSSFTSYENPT

As for `O=C(CCCc1ccc(-c2cnc3ccccc3c2)cc1)Nc1ccc(O)cc1` [Compound 1-08, N-(4-hydroxyphenyl)-4-(4-(quinolin-3-yl)phenyl)butanamide], the half-maximal effective concentration (EC50) (in general, the concentration needed to bring the measured effect to its halfway point) with U87vIII [1] was 1300 ± 400 nM; in assay [5], 3820 nM. The remaining activity at 10 µM on BRK (10 μM compound) was 74%; in assay [4] (10 μM compound), 60%; on IGF1R (10 μM compound), 73%. Besides, the remaining activity at 50 µM on BRK (50 μM compound) was 29%; in assay [4] (50 μM compound), 14%; on IGF1R (50 μM compound), 15%. The “Selectivity score (portion of kinases inhibited more than 50% in relation to all tested kinases)” value in assay [2] (10 μM compound) came to 0.003; in assay [2] (50 μM compound), 0.203. Further, the “apoptosis, U87vIII” value with U87vIII [3] is recorded as “induced apoptosis”. Moreover, the “apoptosis, U87” value in the assay on U87 is “induced apoptosis”.
